Source: US20230085945A1, “ORTHOGONAL SAFETY SWITCHES TO ELIMINATE GENETICALLY ENGINEERED CELLS” (The Board of Trustees of the Leland Stanford Junior …, priority 2020, published 2023)

Key:
[1] = tested on: NANOG-YFP^+ hPSCs mixed with hPSC-derived sclerotome cells; test: Ablation of undifferentiated hPSCs in a heterogeneous cell population (hPSCs spiked into day-5 sclerotome cells); type: cell-based, human
Description: (§1) FIG. 3: Implementation of the NANOG^iCasp9-YFP safety switch. A) Schema depicting how drug AP20187 induces dimerization of Caspase9 in undifferentiated NANOG^iCasp9-YFP hESCs, subsequently triggering cell death (top left). NANOG^iCasp9-YFP hESCs were treated for 24 hours with increasing concentrations of AP20187. AP20187 was withdrawn, and cultures were further grown in mTeSR1 to allow any surviving hESCs to grow; any surviving colonies were counted 1 week later (top right). Alkaline phosphatase staining of whole wells of a 12-well plate after 24-hour treatment with AP20187 (bottom). […] Bioluminescent imaging of mice occurred weekly for 5 weeks with no transplant control (NTC) animals included for relative luminescence normalization. Total flux (photons/sec) was measured for each animal and averaged. […] The percentage of surviving cells was calculated relative to untreated controls. […]
Flow cytometric quantification of viable cells—NANOG^iCasp9-YFP hESCs were dissociated into single cells with Accutase and 1×10^6 cells were plated per well in a 6-well plate pre-coated with Matrigel. […] Subsequently, to quantify the percentage of surviving cells, the cultures were dissociated with TrypLE Express. […] YFP^+ (i.e., NANOG^+) cells were analyzed (Beckman Coulter CytoFlex Analyzer) to count live cells for both untreated and AP20187-treated groups. […]

[2] = tested on: NANOG^iCasp9-YFP hPSC-derived day-6 liver progenitors, bone progenitors and forebrain progenitors; test: Survival of differentiated hPSC-derived tissue progenitors after AP20; type: cell-based, human; details: 24-hour AP20 treatment
Description: as §1
Cell count assay—hESCs were dissociated with EDTA and 5×10^5 cells were plated per well of a 6-well plate that was pre-coated with Matrigel. […] Subsequently, cells were dissociated and the number of viable cells were counted using the Bio-Rad TC20™ Automated Cell Counter (trypan blue exclusion). […]

## CC[C@H](C(=O)N1CCCC[C@H]1C(=O)O[C@H](CCc1ccc(OC)c(OC)c1)c1cccc(OCC(=O)NCC(CNC(=O)COc2cccc([C@@H](CCc3ccc(OC)c(OC)c3)OC(=O)[C@@H]3CCCCN3C(=O)[C@@H](CC)c3cc(OC)c(OC)c(OC)c3)c2)CN(C)C)c1)c1cc(OC)c(OC)c(OC)c1 [AP20]
[1]; 10% undifferentiated hPSCs in day-5 sclerotome progenitors, AP20 for last 24 hours
  decrease in NANOG-YFP^+ cells: > 10 fold
[1]; continued culture in hPSC media after AP20
  colony formation of surviving FACS-purified NANOG-YFP^+ cells: did not form colonies
[2]
  differentiated progenitors spared / remaining viable: > 95%
